Data taken from patent US9943501B2 (KOJUN JAPAN CO., LTD., priority 2014, dated 2018).

How the values were obtained:
[1] = biological target: T1, human-derived PPARγ ligand-binding domain (Homo sapiens, UniProt P37231); assay: PPARγ activation test (GAL4 chimera / luciferase reporter in CV-1 cells); type: cell-based; conditions: for PPARγ ligand activity, ratio (%) of the activity of each synthesized product to the activity of the control substance (DMSO): control = 100
T1 construct: expressed in transfected cells; host or cells: CV-1 cells (African green monkey kidney-derived)
T1 sequence (P37231 238-503 limits assumed): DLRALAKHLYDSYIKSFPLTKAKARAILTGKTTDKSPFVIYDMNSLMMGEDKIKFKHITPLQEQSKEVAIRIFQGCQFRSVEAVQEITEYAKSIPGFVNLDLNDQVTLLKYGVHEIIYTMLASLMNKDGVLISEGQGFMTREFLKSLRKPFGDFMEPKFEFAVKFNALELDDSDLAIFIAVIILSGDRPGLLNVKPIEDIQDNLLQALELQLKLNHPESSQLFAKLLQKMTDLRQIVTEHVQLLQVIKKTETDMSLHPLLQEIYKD
Protocol: A measurement method for the PPAR activation test in Examples below were conducted as described below.
(1) PPARγ Activation Test
A plasmid pM-PPARγ for the expression of a chimeric protein composed of a human-derived PPARγ ligand-binding domain and a DNA-binding domain of a yeast-derived GAL4 transcription factor, and a plasmid p4×UASg-tk-luc containing a Cypridina-derived luciferase structural gene linked downstream of a GAL4 responsive sequence designed such that its expression was controlled by this chimeric protein, were prepared. Also, a Renilla-derived luciferase expression plasmid pRL-CMV having a viral expression promoter for constitutive intracellular expression was prepared as a plasmid for the correction of transfection efficiency. On the other hand, DMEM containing 10% FBS was used as a medium for CV-1 cells (African green monkey kidney-derived). The CV-1 cells were seeded at 4.5×10^5 cells over a 100-mm Petri dish and cultured in an incubator at 37° C. in a 5% CO2 environment.
(1-2) Transformation of CV-1 Cell
The CV-1 cells thus cultured for 24 hours were cotransfected with 2.0 μg of pM-PPARγ, 4.0 μg of p4×UASg-tk-luc, and 0.04 μg of pRL-CMV to transform the CV-1 cells. The transformation was carried out by the liposome method using LipofectAMINE(R) Reagent (a product of Invitrogen Corp.). After the transformation operation, the cells were cultured at 37° C. for 3.5 hours in a 5% CO2 environment.
(1-3) Addition of Test Sample
The CV-1 cells thus incubated were recovered by trypsin treatment, and […] thereof was inoculated at a concentration of 1×10^5 cells/mL to a 96-well plate. Each test sample was diluted with DMEM containing 4% FBS to adjust its concentration to twice the final concentration, and […] thereof was added to the 96-well plate mentioned above. DMSO was used as a control substance. After the addition of the test sample or the control substance (DMSO), the mixture was incubated at 37° C. for 24 hours in a 5% CO2 environment.
(1-4) Measurement of Luciferase Activity
The luciferase activity was measured using Dual-Luciferase(R) Reporter Assay System (a product of Promega K.K.). The culture solution was removed from the 96-well plate. The cells were washed with PBS(−), and moisture was removed therefrom using a paper towel. To the cells, […] of a cell lysis solution (Passive Lysis Buffer) was added, and the 96-well plate was shaken for 15 minutes. The cell extract was transferred at […] to a 96-well luminoplate. A luminescent substrate solution was added thereto at […]. The luminescence intensity based on the luciferase was measured for a measurement time set to 10 seconds using a luminometer (Micro Lumat Plus, a product of Berthold Japan Co., Ltd.).
The PPARγ-activating effect of the test sample was evaluated on the basis of a ratio (%) relative to controls. In order to correct transfection efficiency, the measured Cypridina luciferase activity value (A) was divided by the measured Renilla luciferase activity value (B) to determine a value (A/B). The average A/B value of the control group was calculated and defined as 100. The A/B value of the test sample was calculated, and the ratio (%) of this value to the average value of the controls was used as the ability of the test sample to activate PPARγ.
Their PPARγ ligand activity was measured in the same way as in Example 7 except that the incubation time after the test sample addition was set to 48 hours. The values shown in the table below and the ordinate of the drawing depict the ratio (%) of the activity of each synthesized product to the activity of the control substance (DMSO). In Table 1 and FIG. 13, these various butenolide compounds used as test samples were each indicated by the functional group of R^2 in the formula (1).

[2] = tested on: C57BL/6J mice fed with a high-fat diet; assay: Adiponectin in blood of dietary-induced obesity mouse model; type: in vivo; conditions: 85 days, FIG. 15
Source text: Adiponectin is a secretory protein related to dysmetabolic syndrome such as insulin resistance, diabetes mellitus or arteriosclerosis. Adiponectin-deficient mice have the properties of being more likely to develop insulin resistance and being more likely to be affected by arteriosclerosis than wild-type mice. In humans as well, it is known that lowered adiponectin concentrations are related to dysmetabolic syndrome such as diabetes mellitus and arteriosclerosis. Thus, the dietary-induced obesity mouse models of Example 9 were subjected to the test of measuring the amount of adiponectin in blood.
For each individual of the male C57BL/6J mice after a lapse of 85 days into the test of Example 9, blood was collected from the abdominal vena cava using a syringe supplemented with heparin under anesthesia with 2% isoflurane. The amount of blood collected was set to approximately 0.8 mL. The collected blood was stored under ice cooling until centrifugation. After centrifugation (conditions: 4° C., approximately 1800×g, 10 min), the upper layer was recovered to obtain plasma. The plasma was dispensed to sampling tubes and cryopreserved until measurement. The mouse adiponectin concentration contained in the mouse plasma obtained from each individual was measured using a commercially available ELISA kit, and the average adiponectin concentration of each test group was determined. […]

SMILES: O=C1C=C(c2ccccc2)C(O)O1 (stereo not drawn) [5H4PB, 5-hydroxy-4-phenylbutenolide]
- PPARγ ligand activity of butenolide compounds (in words) ([1]; Example 8, incubation 48 hours, Table 1 and FIG. 13): high activity in a low concentration range
- PPARγ ligand activity of synthesized product ([1]; final concentration 3.5 μM, incubation 24 hours, FIG. 12): high PPARγ ligand activity
- PPARγ ligand activity, ratio (%) of the activity of each synthesized product to the activity of the control substance (DMSO) ([1]; test sample concentration 0.032 μg/mL, incubation 48 hours): 100%
- PPARγ ligand activity, ratio (%) of the activity of each synthesized product to the activity of the control substance (DMSO) ([1]; test sample concentration 0.08 μg/mL, incubation 48 hours): 80%
- PPARγ ligand activity, ratio (%) of the activity of each synthesized product to the activity of the control substance (DMSO) ([1]; test sample concentration 0.16 μg/mL, incubation 48 hours): 120%
- PPARγ ligand activity, ratio (%) of the activity of each synthesized product to the activity of the control substance (DMSO) ([1]; test sample concentration 0.4 μg/mL, incubation 48 hours): 120%
- PPARγ ligand activity, ratio (%) of the activity of each synthesized product to the activity of the control substance (DMSO) ([1]; test sample concentration 0.8 μg/mL, incubation 48 hours, * = twice or more vs control, p<0.05): 220* %
- PPARγ ligand activity, ratio (%) of the activity of each synthesized product to the activity of the control substance (DMSO) ([1]; test sample concentration 2 μg/mL, incubation 48 hours, * = twice or more vs control, p<0.05): 370* %
- PPARγ ligand activity, ratio (%) of the activity of each synthesized product to the activity of the control substance (DMSO) ([1]; test sample concentration 4 μg/mL, incubation 48 hours, * = twice or more vs control, p<0.05): 520* %
- PPARγ ligand activity, ratio (%) of the activity of each synthesized product to the activity of the control substance (DMSO) ([1]; test sample concentration 10 μg/mL, incubation 48 hours, * = twice or more vs control, p<0.05): 710* %
- adiponectin concentration in mouse plasma compared with the control group (t test) ([2]; 0.01 mg/kg/day): significant rise in adiponectin concentration
- adiponectin concentration in mouse plasma compared with the control group ([2]; 5H4PB administration groups (0.037 μg/kg/day and 0.01 mg/kg/day)): confirmed to elevate
